Paper PMC10958225, “Therapeutic potential of orally applied KB-R7943 in streptozotocin-induced neuropathy in rats” (Heliyon, 2024)

Assays:
[1] = tested on: STZ-treated rats with neuropathy; assay: Mortality and adverse effects during chronic oral treatment; type: in vivo; settings: rat, in vivo, po
Description: (§1) Three animals per cage were housed for the experiment 2 (Fig. 3B). Rats were gently manipulated daily before undertaking the actual behavior tests. One week after adaptation, the Randl-Stellito (R–S) test, cold plate test (CPT), and formalin tests (FT) were performed at baseline. After that, the diabetes model was made with 48 rats. Twelve animals served as controls. Body weight (BW), coat score (CS), CPT, R–S, and FT were evaluated on day 28th post-STZ, and after that, rats were distributed into the treatment groups as follows. • C-Veh – Controls, vehiculum treatment (n = 12) • NP-Veh – STZ-treated rats with neuropathy, vehiculum treatment (n = 12) • NP-KB-R7943 – 5 mg - STZ-treated rats, with neuropathy, KB-R7943 5 mg/kg treatment (n = 12) • NP-KB-R7943 – 10 mg – STZ-treated rats, with neuropathy, KB-R7943 10 mg/kg (n = 12) • NP-AMT – 10 mg - STZ-treated rats, with neuropathy, amitriptyline 10 mg/kg (n = 12).
OraPlus was used as a vehiculum for gavage (16 gauge feeding tube 10 ml/kg) in all rats. KB-R7943 in two doses (5 or 10 mg/kg) or amitriptyline 10 mg/kg was applied once daily until day 49. Behavior tests were performed […] after the oral gavage of the corresponding day, in the afternoon, starting from 2 p.m. […] On day 41, an FST was performed, and at 2 p.m., rats were placed individually for 24 h to assess spontaneous physical activity. […]

[2] = tested on: STZ-treated rats with neuropathy; assay: 24-hour spontaneous physical activity; type: in vivo, rat; settings: 5 mg/kg p.o. once daily from day 28, from day 41
Description: (§2) On the day of diabetic state induction, rats were deprived of food for 6 h (from 8 a.m. to 2 p.m.). A single i.p. injection was applied with 55 mg/kg STZ in the ice-cold citrate buffer (0.1 M pH 4.4). The observed polydipsia, polyuria, reduced thriving with lower body weight, and poor coating appearance indirectly indicated the development of diabetes. On day 28, after 6 h of fasting, blood glucose was measured with an Xpress Statstrip Glucometer (Nova Biomedical Corporation, Waltham, MA, USA) from the tail vein. A cut-off value of blood glucose >13 mmol/l was adopted. […] Controls were once i.p. injected with ice-cold citrate buffer 0.1 M pH 4.4 only.
as §1, with “One week after adaptation, the Randl-Stellito (R–S) test, cold plate test (CPT), and formalin tests (FT) were performed at baseline. After that, the diabetes model was made with 48 rats. Twelve animals served as controls.” left out, “12). […]” for “12).”

[3] = tested on: STZ-treated rats with neuropathy; assay: Formalin test (0.5% formalin); type: in vivo, rat
Description: as §2, §1
OraPlus was used as a vehiculum for gavage (16 gauge feeding tube 10 ml/kg) in all rats. KB-R7943 in two doses (5 or 10 mg/kg) or amitriptyline 10 mg/kg was applied once daily until day 49. Behavior tests were performed […] after the oral gavage of the corresponding day, in the afternoon, starting from 2 p.m. […] On day 41, an FST was performed, and at 2 p.m., rats were placed individually for 24 h to assess spontaneous physical activity. After that, on day 42, the same battery of the tests as on day 28 were reassessed.
The formalin test was performed 1 h after the R–S test to decrease the interaction with the mechanical stimulus from the previous test. For the same reason, the left hind paws were injected. A needle (U-100 Insulin Syringe, Beckton and Dickinson, Dublin, Ireland) was used. A low-dose intraplantar injection of formalin 50 mcl 0.5% was done, and rats were placed in individual transparent cases for observation. Two independent observers measured the time spent licking or biting the injected paw, and the first (0–5 min) and the second post-injection phase (20–30 min) were reported in sec.

**Q.** Which mortality during treatment [1] does the source give for `N=C(N)SCCc1ccc(OCc2ccc([N+](=O)[O-])cc2)cc1` [KB-R7943, [(2-{4-[(4-nitrophenyl)methoxy]phenyl}ethyl)sulfanyl]methanimidamide] here?
**A.** Its mortality during treatment is “No one rat died”.

**Q.** What about the “24-h spontaneous physical activity” value [2] of the same molecule?
**A.** Its value is 1705.92 ± 237.74 beam breaks.

**Q.** And the “effect on formalin test first phase (0–5 min)” value ([3]; 5 mg/kg p.o. once daily, vs. 10 mg/kg groups)?
**A.** The value was “weaker effect”.

**Q.** What about the “effect on formalin test first phase (0–5 min)” value ([3]; 10 mg/kg p.o. once daily, vs. NP-Veh) of the same molecule?
**A.** Its value is “attenuated”.

**Q.** And the “effect on formalin test second phase (20–30 min)” value ([3]; amitriptyline 10 mg/kg, KB-R7943 5 and 10 mg/kg p.o. once daily, vs. NPveh, dose-dependent)?
**A.** The value was “attenuated”.
